Values of other authors, collected in patent US8916340B2, “Method for identifying and validating dominant T helper cell epitopes using an HLA-DM-assisted class II binding assay” (The John Hopkins University, priority 2006, dated 2014).

Target: HLA-DR1 (Homo sapiens, UniProt P01903+P01911)
Settings: short-lived, DM-sensitive complex of peptide with HLA-DR1

Chain of HLA-DR1 (P01903 26-216, other chains not shown): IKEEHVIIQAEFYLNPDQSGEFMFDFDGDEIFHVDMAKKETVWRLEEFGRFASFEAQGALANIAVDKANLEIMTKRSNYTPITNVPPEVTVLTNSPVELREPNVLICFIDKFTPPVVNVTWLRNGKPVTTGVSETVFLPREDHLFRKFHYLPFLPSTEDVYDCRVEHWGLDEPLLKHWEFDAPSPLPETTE

## PKAVKQNTLKLAT [HAy308A]
  t1/2 of complex with HLA-DR1: 34 min
